Reference: ChEMBL document CHEMBL1201862, “PubChem BioAssay data set” (2004)
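Cells were grown in 96-well plates and exposed to each compound for 48 hours at five concentrations; endpoints were interpolated linearly between bracketing concentrations, or set to the highest concentration if not reached. GI50 marks 50% less growth.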 Active and inactive are the calls of the source. Cut-off read from the data, not from the text of the source: active = GI50 up to about 1.1 µM and inactive = higher.

Legend:
Assay in all cases: DTP human tumour cell line panel, 48 h
786-0 = system: 786-0
A498 = system: A498
A549 = system: A549
ACHN = system: ACHN
BT-549 = system: BT-549
CAKI-1 = system: CAKI-1
CCRF-CEM = system: CCRF-CEM
COLO 205 = system: COLO 205
DU-145 = system: DU-145
EKVX = system: EKVX
HCC 2998 = system: HCC 2998
HCT-116 = system: HCT-116
HCT-15 = system: HCT-15
HL-60 = system: HL-60
HOP-62 = system: HOP-62
HOP-92 = system: HOP-92
HT-29 = system: HT-29
Hs-578T = system: Hs-578T
IGROV-1 = system: IGROV-1
K562 = system: K562
KM12 = system: KM12
LOX IMVI = system: LOX IMVI
M14 = system: M14
MCF7 = system: MCF7
MDA-MB-231 = system: MDA-MB-231
MDA-MB-435 = system: MDA-MB-435
MDA-N = system: MDA-N
MOLT-4 = system: MOLT-4
Malme-3M = system: Malme-3M
NCI-H226 = system: NCI-H226
NCI-H23 = system: NCI-H23
NCI-H460 = system: NCI-H460
NCI-H522 = system: NCI-H522
NCI/ADR-RES = system: NCI/ADR-RES
OVCAR-3 = system: OVCAR-3
OVCAR-4 = system: OVCAR-4
OVCAR-5 = system: OVCAR-5
OVCAR-8 = system: OVCAR-8
PC-3 = system: PC-3
RXF 393 = system: RXF 393
SF-268 = system: SF-268
SF-295 = system: SF-295
SF-539 = system: SF-539
SK-MEL-28 = system: SK-MEL-28
SK-MEL-2 = system: SK-MEL-2
SK-MEL-5 = system: SK-MEL-5
SK-OV-3 = system: SK-OV-3
SN12C = system: SN12C
SNB-19 = system: SNB-19
SNB-75 = system: SNB-75
SR = system: SR
SW-620 = system: SW-620
TK-10 = system: TK-10
U-251 = system: U-251
UACC-62 = system: UACC-62
UO-31 = system: UO-31
RPMI-8226 = system: RPMI-8226
T47D = system: T47D
UACC-257 = system: UACC-257

## O=C1CCCCC1CN1CCCCC1 (configuration not stated)
786-0
  GI50: > 100 µM (inactive)
A498
  GI50: > 100 µM (inactive)
A549
  GI50: > 100 µM (inactive)
ACHN
  GI50: > 100 µM (inactive)
BT-549
  GI50: > 100 µM (inactive)
CAKI-1
  GI50: > 100 µM (inactive)
CCRF-CEM
  GI50: > 100 µM (inactive)
COLO 205
  GI50: > 100 µM (inactive)
DU-145
  GI50: > 100 µM (inactive)
EKVX
  GI50: > 100 µM (inactive)
HCC 2998
  GI50: > 100 µM (inactive)
HCT-116
  GI50: > 100 µM (inactive)
HCT-15
  GI50: > 100 µM
HL-60
  GI50: > 100 µM (inactive)
HOP-62
  GI50: > 100 µM (inactive)
HOP-92
  GI50: > 100 µM (inactive)
HT-29
  GI50: > 100 µM (inactive)
Hs-578T
  GI50: > 100 µM (inactive)
IGROV-1
  GI50: > 100 µM (inactive)
K562
  GI50: > 100 µM (inactive)
KM12
  GI50: > 100 µM (inactive)
LOX IMVI
  GI50: > 100 µM (inactive)
M14
  GI50: > 100 µM (inactive)
MCF7
  GI50: > 100 µM (inactive)
MDA-MB-231
  GI50: > 100 µM (inactive)
MDA-MB-435
  GI50: > 100 µM (inactive)
MDA-N
  GI50: > 100 µM (inactive)
MOLT-4
  GI50: > 100 µM (inactive)
Malme-3M
  GI50: > 100 µM (inactive)
NCI-H226
  GI50: > 100 µM (inactive)
NCI-H23
  GI50: > 100 µM (inactive)
NCI-H460
  GI50: > 100 µM (inactive)
NCI-H522
  GI50: 1.91 µM (inactive)
NCI/ADR-RES
  GI50: > 100 µM (inactive)
OVCAR-3
  GI50: > 100 µM (inactive)
OVCAR-4
  GI50: > 100 µM (inactive)
OVCAR-5
  GI50: > 100 µM (inactive)
OVCAR-8
  GI50: > 100 µM (inactive)
PC-3
  GI50: > 100 µM (inactive)
RXF 393
  GI50: > 100 µM (inactive)
SF-268
  GI50: > 100 µM (inactive)
SF-295
  GI50: > 100 µM (inactive)
SF-539
  GI50: > 100 µM (inactive)
SK-MEL-28
  GI50: > 100 µM (inactive)
SK-MEL-2
  GI50: > 100 µM (inactive)
SK-MEL-5
  GI50: > 100 µM (inactive)
SK-OV-3
  GI50: > 100 µM (inactive)
SN12C
  GI50: > 100 µM (inactive)
SNB-19
  GI50: > 100 µM (inactive)
SNB-75
  GI50: > 100 µM (inactive)
SR
  GI50: 8.89 µM (inactive)
SW-620
  GI50: > 100 µM (inactive)
TK-10
  GI50: > 100 µM (inactive)
U-251
  GI50: > 100 µM (inactive)
UACC-62
  GI50: > 100 µM (inactive)
UO-31
  GI50: > 100 µM (inactive)

## Cc1cc(C)c(-n2c(C)c(C)c(C#N)c2N)c(C)c1
786-0
  GI50: 41 µM (inactive)
A498
  GI50: 29.3 µM (inactive)
A549
  GI50: 36.5 µM (inactive)
ACHN
  GI50: 31.3 µM (inactive)
BT-549
  GI50: 34.8 µM (inactive)
CAKI-1
  GI50: 43.3 µM (inactive)
CCRF-CEM
  GI50: 15.3 µM (inactive)
COLO 205
  GI50: 19.7 µM (inactive)
DU-145
  GI50: 38.1 µM (inactive)
EKVX
  GI50: 27.5 µM (inactive)
HCT-116
  GI50: 18.8 µM (inactive)
HCT-15
  GI50: 27.9 µM
HL-60
  GI50: 15.1 µM (inactive)
HOP-62
  GI50: 35.8 µM (inactive)
HOP-92
  GI50: 19 µM (inactive)
HT-29
  GI50: 30.5 µM (inactive)
Hs-578T
  GI50: 43.8 µM (inactive)
IGROV-1
  GI50: 37 µM (inactive)
K562
  GI50: 11 µM (inactive)
KM12
  GI50: 36.1 µM (inactive)
LOX IMVI
  GI50: 19.2 µM (inactive)
M14
  GI50: 27.5 µM (inactive)
MDA-MB-231
  GI50: 33.6 µM (inactive)
MDA-MB-435
  GI50: 23 µM (inactive)
MDA-N
  GI50: 19.2 µM (inactive)
MOLT-4
  GI50: 15.6 µM (inactive)
Malme-3M
  GI50: 25.1 µM (inactive)
NCI-H226
  GI50: 25 µM (inactive)
NCI-H23
  GI50: 39 µM (inactive)
NCI-H460
  GI50: 22.4 µM (inactive)
NCI-H522
  GI50: 21 µM (inactive)
NCI/ADR-RES
  GI50: 32.3 µM (inactive)
OVCAR-3
  GI50: 24.2 µM (inactive)
OVCAR-4
  GI50: 29 µM (inactive)
OVCAR-5
  GI50: > 100 µM (inactive)
OVCAR-8
  GI50: 34.6 µM (inactive)
PC-3
  GI50: 25.8 µM (inactive)
RPMI-8226
  GI50: 18.6 µM (inactive)
RXF 393
  GI50: 22.1 µM (inactive)
SF-268
  GI50: 38.6 µM (inactive)
SF-295
  GI50: 36.4 µM (inactive)
SF-539
  GI50: 23.4 µM (inactive)
SK-MEL-28
  GI50: 37.1 µM (inactive)
SK-MEL-2
  GI50: 19.5 µM (inactive)
SK-MEL-5
  GI50: 14.9 µM (inactive)
SK-OV-3
  GI50: 33 µM (inactive)
SN12C
  GI50: 27.2 µM (inactive)
SNB-19
  GI50: 87.7 µM (inactive)
SNB-75
  GI50: 31.9 µM (inactive)
SR
  GI50: 11 µM (inactive)
SW-620
  GI50: 26.5 µM (inactive)
T47D
  GI50: 26.3 µM (inactive)
TK-10
  GI50: 32.4 µM (inactive)
U-251
  GI50: 17.4 µM (inactive)
UACC-257
  GI50: 18.1 µM (inactive)
UO-31
  GI50: 83.2 µM (inactive)
